Our source for the EC50 values is ChEMBL document CHEMBL5209586, “Membrane potential-based assay for SLC34A1 using HEK293 JumpIn SLC34A1 OE cells” (2022).

The term EC50 denotes the concentration needed to bring the measured effect to its halfway point. The low end stands for greater potency, the high end for weaker potency.

The assay has as its target T1, Sodium-dependent phosphate transport protein 2A (Homo sapiens, UniProt Q06495).
T1 sequence (Q06495 whole entry): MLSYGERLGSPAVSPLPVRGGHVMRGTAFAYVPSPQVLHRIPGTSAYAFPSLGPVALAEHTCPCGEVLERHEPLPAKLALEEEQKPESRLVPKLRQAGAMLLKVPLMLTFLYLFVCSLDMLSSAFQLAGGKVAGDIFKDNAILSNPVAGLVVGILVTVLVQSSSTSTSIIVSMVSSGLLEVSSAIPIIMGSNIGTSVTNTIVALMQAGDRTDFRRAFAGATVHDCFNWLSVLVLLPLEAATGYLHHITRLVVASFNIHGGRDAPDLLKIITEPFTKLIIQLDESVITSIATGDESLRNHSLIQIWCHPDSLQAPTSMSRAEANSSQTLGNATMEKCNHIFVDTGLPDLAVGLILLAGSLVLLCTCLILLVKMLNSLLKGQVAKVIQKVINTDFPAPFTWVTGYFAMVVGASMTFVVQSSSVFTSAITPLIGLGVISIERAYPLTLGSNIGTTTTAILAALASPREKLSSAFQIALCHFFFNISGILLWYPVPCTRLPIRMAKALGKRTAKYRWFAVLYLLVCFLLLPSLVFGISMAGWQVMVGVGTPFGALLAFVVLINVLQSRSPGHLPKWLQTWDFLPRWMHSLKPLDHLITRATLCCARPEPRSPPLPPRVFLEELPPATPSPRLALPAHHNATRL

The structures appear in SMILES notation.

Description: Substrate uptake by the Sodium-Dependent Phosphate Transport Protein 2A (NPT2a, SLC34A1) as assessed by the fluorescent FLIPR membrane potential dye in HEK-293 JumpIN-SLC34A1 cells (PubChem AID: 1794813)

`O=P([O-])(O)O.[K+]` [POTASSIUM PHOSPHATE, MONOBASIC] yielded an EC50 of 39 µM.

In turn, `O=P([O-])([O-])O.[Na+].[Na+]` [SODIUM PHOSPHATE, DIBASIC, ANHYDROUS] displayed an EC50 of 32 µM. This EC50 and that of the compound before are within 1.5-fold of each other.
